In BindingDB's records for doi:10.1074/jbc.M113.518506 (Rudjer Boskovic Institute, 2013) one finds Ki data, which are given here for 26 compounds.

SMILES strings stand for the structures.

The target of experiment [1] is T1, Solute carrier organic anion transporter family member (Danio rerio, UniProt A0A8M9PU70).
T1 sequence (A0A8M9PU70 whole entry): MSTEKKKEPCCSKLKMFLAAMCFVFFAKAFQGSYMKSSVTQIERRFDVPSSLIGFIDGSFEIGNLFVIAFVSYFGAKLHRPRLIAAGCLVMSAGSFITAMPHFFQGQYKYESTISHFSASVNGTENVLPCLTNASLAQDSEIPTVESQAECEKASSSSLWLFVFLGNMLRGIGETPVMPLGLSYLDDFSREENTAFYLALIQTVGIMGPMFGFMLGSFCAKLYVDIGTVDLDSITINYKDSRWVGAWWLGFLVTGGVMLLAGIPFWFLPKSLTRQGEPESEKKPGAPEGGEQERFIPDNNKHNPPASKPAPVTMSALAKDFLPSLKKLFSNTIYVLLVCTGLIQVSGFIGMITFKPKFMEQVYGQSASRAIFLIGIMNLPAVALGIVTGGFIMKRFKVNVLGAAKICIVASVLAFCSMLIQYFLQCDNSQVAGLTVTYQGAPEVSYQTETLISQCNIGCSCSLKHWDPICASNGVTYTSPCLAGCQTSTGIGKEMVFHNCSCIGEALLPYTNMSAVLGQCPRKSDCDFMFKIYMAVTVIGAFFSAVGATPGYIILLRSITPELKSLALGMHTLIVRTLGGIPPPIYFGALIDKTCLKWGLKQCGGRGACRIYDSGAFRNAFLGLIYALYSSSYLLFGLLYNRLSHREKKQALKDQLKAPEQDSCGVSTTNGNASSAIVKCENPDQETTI
In words: Oatp1d1 Transport Assay. The method, then:
(§1) In the inhibition experiments, the cells were preincubated for 20 s with test compounds, followed by a 5-min incubation with [3H]E3S (5 nM) or 30-min incubation with LY (5 μM).

Experiment [2] addresses T2, Solute carrier organic anion transporter family member [3-691] (Zebrafish, UniProt A0A0R4IW35).
T2 construct: 3-691
T2 sequence (A0A0R4IW35 whole entry): T1 sequence (A0A8M9PU70 whole entry)
In words: Oatp1d1 Transport Assay. The method, then: as §1

In experiment [1], `CCCN(CCC)S(=O)(=O)c1ccc(C(=O)O)cc1` registered a Ki of 26 µM.
`CC[C@H]1OC(=O)[C@H](C)[C@@H](O[C@H]2C[C@@](C)(OC)[C@@H](O)[C@H](C)O2)[C@H](C)[C@@H](O[C@@H]2O[C@H](C)C[C@H](N(C)C)[C@H]2O)[C@](C)(O)C[C@@H](C)C(=O)[C@H](C)[C@@H](O)[C@]1(C)O`: in experiment [1], the Ki came to 882 µM.
Still for that read-out and setting: next, `C[C@H](CCC(=O)NCCS(=O)(=O)O)[C@H]1CC[C@H]2[C@@H]3[C@H](O)C[C@@H]4C[C@H](O)CC[C@]4(C)[C@H]3CC[C@]12C`: 3.4 µM.
On the same count and under the same terms, the same measure for `CC(=O)[C@H]1CC[C@H]2[C@@H]3CCC4=CC(=O)CC[C@]4(C)[C@H]3CC[C@]12C`: 9.06 µM.
The compound `CCOC(=O)C(C)(C)Oc1ccc(Cl)cc1` [2-(4-Chlorophenoxy)-2-methylpropanoic acid ethyl ester] had a Ki in experiment [2] of 345 µM.
As to `CC(=O)C[C@H](c1ccccc1)c1c(O)c2ccccc2oc1=O` [2-hydroxy-3-(3-oxo-1-phenylbutyl)-4H-chromen-4-one], the Ki in experiment [1] was found to be 0.36 µM.
Same read-out and setting: the same measure for `Cc1ccc(C)c(OCCCC(C)(C)C(=O)O)c1` [5-(2,5-dimethylphenoxy)-2,2-dimethylpentanoic acid]: 7.44 µM; for `C[C@]12C[C@H](O)[C@H]3[C@@H](CCC4=CC(=O)CC[C@@]43C)[C@@H]1CC[C@@H]2C(=O)CO` [11beta,21-dihydroxypregn-4-ene-3,20-dione]: 105 µM.
`C[C@]12CC[C@@H]3c4ccc(O)cc4CC[C@H]3[C@@H]1CC[C@@H]2O[C@@H]1O[C@H](C(=O)O)[C@@H](O)[C@H](O)[C@H]1O` [17beta-Estradiol-17-(beta-D-glucuronide)]: the Ki in experiment [1] is 3.26 µM.
In turn, `CC[C@H](C)C(=O)O[C@H]1C[C@H](O)C=C2C=C[C@H](C)[C@H](CC[C@@H](O)C[C@@H](O)CC(=O)O)[C@H]21` [(3R,5R)-7-[(1S,2S,6S,8S,8aR)-6-hydroxy-2-methyl-8-{[(2S)-2-methylbutanoyl]oxy}-1,2,6,7,8,8a-hexahydronaphthalen-1-yl]-3,5-dihydroxyheptanoic acid] returned a Ki in experiment [1] of 9.27 µM.
In experiment [1], `C[C@]12CCC(=O)C=C1CC[C@@H]1[C@@H]2CC[C@]2(C)C(=O)CC[C@@H]12` [Androst-4-en-3,17-dione, 2] displayed a Ki of 3.78 µM.
For the compound `C=CC1=C(C)/C(=C/c2[nH]c(Cc3[nH]c(/C=C4\NC(=O)C(C)=C4C=C)c(C)c3CCC(=O)O)c(CCC(=O)O)c2C)NC1=O` [BILIRUBIN], the Ki in experiment [1] worked out at 14.5 µM.
`O=C1OC(c2ccc(O)c(S(=O)(=O)O)c2)(c2ccc(O)c(S(=O)(=O)O)c2)c2c(Br)c(Br)c(Br)c(Br)c21` [BROMOSULFOPHTHALEIN] showed a Ki in experiment [1] of 2.99 µM.
The compound `CC(C)(Oc1ccc(CCNC(=O)c2ccc(Cl)cc2)cc1)C(=O)O` [Cedur] gave a Ki in experiment [1] of 40.4 µM.
In the case of `C[C@H](CCC(=O)O)[C@H]1CC[C@H]2[C@@H]3[C@H](O)C[C@@H]4C[C@H](O)CC[C@]4(C)[C@H]3C[C@H](O)[C@]12C` [Cholic Acid], in experiment [1], the Ki was 141 µM.
On the same count and under the same terms, next, `C[C@]12CCC(=O)C[C@@H]1CC[C@@H]1[C@@H]2CC[C@]2(C)[C@@H](O)CC[C@@H]12` [DHT]: 23.4 µM; `CCCCC[C@H](O)/C=C/[C@H]1[C@H](O)CC(=O)[C@@H]1C/C=C\CCCC(=O)O` [DINOPROSTONE]: 227 µM.
In experiment [1], `C[C@H](CCC(=O)O)[C@H]1CC[C@H]2[C@@H]3CC[C@@H]4C[C@H](O)CC[C@]4(C)[C@H]3C[C@H](O)[C@]12C` [Deoxycholic Acid] displayed a Ki of 9.94 µM.
In experiment [1], `C[C@]12CC[C@@H]3c4ccc(OS(=O)(=O)O)cc4CC[C@H]3[C@@H]1CCC2=O` [Estrone Sulphate] showed a Ki of 1.01 µM.
On the same count and under the same terms, next, `CC(C)OC(=O)C(C)(C)Oc1ccc(C(=O)c2ccc(Cl)cc2)cc1` [Finofibrate]: 54.4 µM; `CN(Cc1cnc2nc(N)nc(N)c2n1)c1ccc(C(=O)N[C@@H](CCC(=O)O)C(=O)O)cc1` [MTX]: 222 µM; `CO[C@H]1/C=C/O[C@@]2(C)Oc3c(C)c(O)c4c(c3C2=O)C(=O)/C(=C/NN2CCN(C)CC2)C(=C4O)NC(=O)/C(C)=C\C=C\[C@H](C)[C@H](O)[C@@H](C)[C@@H](O)[C@@H](C)[C@H](OC(C)=O)[C@@H]1C` [Rifampicin]: 12.7 µM.
On the same count and under the same terms, next, `C[C@]12CC[C@H]3[C@@H](CCC4=CC(=O)CC[C@@]43C)[C@@H]1CC[C@@H]2O` [Testosterone, 1]: 30 µM.
As to `C[C@]12CC[C@@H]3c4ccc(O)cc4CC[C@H]3[C@@H]1CC[C@@H]2O` [[2,4,6,7-3H]-17beta-estradiol], the Ki in experiment [1] was 2.83 µM.
Same read-out and setting: next, `C[C@]12CCC(=O)C=C1CC[C@@H]1[C@@H]2[C@@H](O)C[C@@]2(C)[C@H]1CC[C@]2(O)C(=O)CO` [[3H]cortisol]: 120 µM; `N[C@@H](Cc1cc(I)c(Oc2ccc(O)c(I)c2)c(I)c1)C(=O)O` [triothyrone]: 42.7 µM.

What is called Ki is a measure of affinity in units of concentration, obtained from inhibition or displacement. A low value points to tighter binding.
